Consider one molecule from patent US20060166894A1, “Ace-inhibitors having antioxidant and no-donor activity” (Yissum Research Development Company of the Hebrew …, priority 2002, published 2006).

The term IC50 denotes the concentration at which inhibition is half-maximal.

In this assay the target is T1, recombinant human somatic ACE (Homo sapiens, UniProt P12821).
T1 construct: purchased R&D Systems
In words: ACE activity, cleavage of fluorogenic peptide substrate. It counts as biochemical. The following applies: fluorogenic substrate 10 μM, 50 mM sodium borate buffer pH 8.2, 37° C. The text has this:
Angiotensin converting enzyme (ACE) is a dipeptidyl carboxypeptidase that releases the C-terminal dipeptide His-Leu from decapeptide angiotensin I, converting it to the vasoconstrictor angiotensin II (Ang II). The assay for ACE activity will measure the cleavage of a fluorogenic peptide substrate, (7-methoxycoumarin-4-yl)acetyl-Arg-Pro-Pro-Gly-Phe-Ser-Ala-Phe-Lys(2,4 dinitrophenyl; R&D Systems). This peptide substrate contains a fluorescent 7-methoxycoumarin group that is internally quenched by resonance energy transfer to the 2,4-dinitrophenyl group. ACE cleaves the peptide between the Ala-Phe (between the fluorescent group and the quencher group), resulting in an increase in fluorescence. The assay is carried out in a 96-well plate. […] Fluorescence changes (relative fluorescence units/min, RFU/min) are measured using a fmax fluorescence microplate reader (Molecular Devices with SoftmaxPro software) at 37° C. with excitation and emission wavelengths of 320 nm and 405 nm, respectively. A background rate determined for samples containing no ACE is subtracted from all reactions to calculate the initial rates in RFU/min. […]
The ACE activity of the compound N-{2-([1,2]dithiolan-3-yl)-propionyl}-pyrrolidine-2-carboxylic acid was measured as described above.

Each structure is given as a SMILES string.

T1 sequence (P12821 30-1306): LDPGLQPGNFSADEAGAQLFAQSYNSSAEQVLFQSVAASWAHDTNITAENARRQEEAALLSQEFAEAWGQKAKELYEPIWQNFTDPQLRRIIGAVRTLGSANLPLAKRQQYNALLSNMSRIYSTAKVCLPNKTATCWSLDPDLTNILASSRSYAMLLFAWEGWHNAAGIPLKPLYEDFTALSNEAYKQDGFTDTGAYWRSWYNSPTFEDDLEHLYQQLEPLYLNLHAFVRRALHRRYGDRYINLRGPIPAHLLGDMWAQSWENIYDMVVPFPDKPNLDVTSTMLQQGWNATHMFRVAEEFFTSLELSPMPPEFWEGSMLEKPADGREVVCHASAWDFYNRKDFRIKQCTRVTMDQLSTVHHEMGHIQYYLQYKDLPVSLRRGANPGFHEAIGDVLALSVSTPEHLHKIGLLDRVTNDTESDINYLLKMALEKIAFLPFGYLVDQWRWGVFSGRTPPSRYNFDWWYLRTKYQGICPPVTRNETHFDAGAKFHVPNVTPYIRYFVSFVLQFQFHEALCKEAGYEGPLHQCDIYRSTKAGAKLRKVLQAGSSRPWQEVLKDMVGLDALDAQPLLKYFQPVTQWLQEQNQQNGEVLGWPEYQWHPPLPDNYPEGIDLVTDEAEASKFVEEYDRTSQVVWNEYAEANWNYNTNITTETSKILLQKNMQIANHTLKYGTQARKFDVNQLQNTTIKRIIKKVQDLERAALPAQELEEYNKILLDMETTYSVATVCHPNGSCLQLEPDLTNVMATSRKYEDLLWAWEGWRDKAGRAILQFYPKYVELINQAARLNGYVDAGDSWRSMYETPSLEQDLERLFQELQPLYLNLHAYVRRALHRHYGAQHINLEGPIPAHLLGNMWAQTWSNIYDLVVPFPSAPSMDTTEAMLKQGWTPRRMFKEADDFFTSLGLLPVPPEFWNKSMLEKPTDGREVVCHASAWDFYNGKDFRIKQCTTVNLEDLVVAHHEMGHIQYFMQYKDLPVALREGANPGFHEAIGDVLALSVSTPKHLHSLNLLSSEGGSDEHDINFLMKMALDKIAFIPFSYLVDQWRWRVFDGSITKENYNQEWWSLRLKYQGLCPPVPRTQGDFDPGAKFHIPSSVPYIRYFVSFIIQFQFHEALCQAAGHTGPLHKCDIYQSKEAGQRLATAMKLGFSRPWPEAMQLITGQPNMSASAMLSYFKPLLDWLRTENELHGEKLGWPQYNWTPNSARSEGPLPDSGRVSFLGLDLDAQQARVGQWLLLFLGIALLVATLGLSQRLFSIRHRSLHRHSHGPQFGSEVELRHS

For the molecule `CC(C(=O)N1CCCC1C(=O)O)C1CCSS1` (stereo not shown) [N-{2-([1,2]Dithiolan-3-yl)-propionyl}-pyrrolidine-2-carboxylic acid], the IC50 was found to be 64 µM.
